Data from US5998376A, “Substance P treatment for immunostimulation” (priority 1998, dated 1999).

Experiments:
[1] = tested on: splenic T cells; assay: Mitogenesis of spleen T cells (ConA, 3H-thymidine) from LP-BM5-infected mice given SP aerosol; format: in vivo, C57BL6 mice
Description: C57BL6 mice, average weight of 25-30 grams, were infected with the LP-BM5 murine leukemia retrovirus to simulate the human AIDS virus. […] The mice were divided into two groups; LP-BM5 virus only and LP-BM5 virus +substance P aerosol therapy at 1 μM concentration. The mice were killed at 4 and 8 weeks post-inoculation.
The proliferation of splenic B and T cells induced by mitogens was determined by incorporation of radioactive thymidine. Splenocytes in 0.1 ml of cell culture medium (1×10^7 cells/ml) were cultured in 96-well flat-bottom cultured plates with ConA and lipopolysaccharide, 5 micrograms/ml). […] After 4 hours for radioactive thymidine uptake, the cells were harvested by a cell sample harvester. Radioactivity was determined by a liquid scintillation counter (Tri-Carb, 2200CA). The T and B cell mitogenesis values were recorded as counts per min in 1×10^7 cells/ml.

[2] = tested on: lymphocyte subpopulations; assay: Flow cytometric analyses (FACS) of immune organs, JP-8 exposed mice; format: in vivo, C57B16 mice
Description: (§1) At 24 hours after the last exposure, the animals were sacrificed and the effects of exposure on the immune system examined. Immune organs (spleen, thymus, blood, lymph nodes and bone marrow) were recovered and analyzed for effects on organ weight, total cell numbers, immune cell populations (by differentials), and lymphocyte subpopulations (by flow cytometry). Assays were also performed to examine the effects of exposure on immune function. […] Similar effects on immune cell subpopulations were also observed in lymph nodes. In the thymus it appeared that the immature CD4^+ CD8^+ cells were differentially lost due to exposure. […] However, these effects are prevented or ameliorated by treatment of the animals with Substance P.
Flow cytometric analyses (FACS): One- and two-color FACS analyses are performed using a Becton-Dickinson FACStar Plus flow cytometer. Cells are stained with the indicated monoclonal antibodies according to standard procedures (Harris et al., id). Cells alone and cells reacted with conjugated isotype control, irrelevant mAbs are used as controls. Data is presented as the percentage of cells staining positive for each individual mAb.

[3] = tested on: immune system; assay: Immune parameters and immune function (blastogenesis, mixed lymphocyte response) after JP-8 exposure; format: in vivo, C57B16 mice
Description: as §1
Blastogenesis and Mixed lymphocyte response (MLR) assays: Blastogenesis and MLR assays are set up in 96 well microtitre plated in replicates of 6. Responder cells are plated at 1×10^5 cells/well and are stimulated as indicated (with either media, alloantigen, growth factors or mitogens). After 72 hours the plates are pulsed with 1 uCi/well of ^3 H-thymidine for 18 hours. The wells are then harvested using a Ph.D. cell harvester, the filters dried and scintillation counting performed. The data is presented as the stimulated dpm and is represented as the stimulation index (SI) (Harris et al., Proc. Natl. Acad Sci. USA 89:10006 (1992)).

[4] = LP-BM5 virus + SP aerosol 1 μM, 4 weeks after infection, mean (SEM)
[5] = JP-8 dose 0 + SP or antagonist aerosol
[6] = JP-8 dose 1000 + SP or antagonist aerosol
[7] = JP-8 dose 1000 + nSP (1 nanomolar substance P)

## Substance P [SP]
[1]; LP-BM5 virus + SP aerosol 1 μM 3 days/week, 4 weeks after infection, mean (SEM)
  Spleen T Cell Mitogenesis, 24 Hours in Culture: 2963 (56) counts per min
[1]; [4]
  Spleen T Cell Mitogenesis, 48 Hours in Culture: 2769 (23) counts per min
  Spleen T Cell Mitogenesis, 72 hours in culture: 4362 (69) counts per min
[1]; LP-BM5 virus + SP aerosol 1 μM, 8 weeks post-infection
  Spleen T Cell Mitogenesis, 72 hours in culture: 3127 (77) counts per min
[2]; [5]
  BM CD3, cells staining positive: 12%
  BM CD4, cells staining positive: 11%
  BM CD8, cells staining positive: 1%
  BM CD45, cells staining positive: 48%
  Spleen CD3, cells staining positive: 42%
  Spleen CD4, cells staining positive: 26%
  Spleen CD8, cells staining positive: 11%
  Spleen CD45, cells staining positive: 23%
  Spleen MAC1, cells staining positive: 1%
  Thymus CD3, cells staining positive: 10%
  Thymus DN, cells staining positive: 7%
  Thymus DP, cells staining positive: 84%
  Thymus SP4, cells staining positive: 6%
  Thymus SP8, cells staining positive: 2%
[2]; JP-8 dose 250 + SP aerosol
  BM CD3, cells staining positive: 13%
  BM CD4, cells staining positive: 10%
  BM CD8, cells staining positive: 3%
  BM CD45, cells staining positive: 48%
  BM MAC1, cells staining positive: 10%
  LN CD3, cells staining positive: 85%
  LN CD4, cells staining positive: 48%
  LN CD8, cells staining positive: 12%
  LN CD45, cells staining positive: 13%
  LN MAC1, cells staining positive: 1%
  PBL CD3, cells staining positive: 59%
  PBL CD4, cells staining positive: 15%
  PBL CD8, cells staining positive: 6%
  PBL CD45, cells staining positive: 16%
  PBL MAC1, cells staining positive: 1%
  Spleen CD3, cells staining positive: 62%
  Spleen CD4, cells staining positive: 27%
  Spleen CD8, cells staining positive: 3%
  Spleen CD45, cells staining positive: 21%
  Spleen MAC1, cells staining positive: 1%
  Thymus CD3, cells staining positive: 24%
  Thymus DN, cells staining positive: 5%
  Thymus DP, cells staining positive: 68%
  Thymus SP4, cells staining positive: 22%
  Thymus SP8, cells staining positive: 5%
[2]; [6]
  BM CD3, cells staining positive: 14%
  BM CD4, cells staining positive: 9%
  BM CD8, cells staining positive: 2%
  BM CD45, cells staining positive: 31%
  BM MAC1, cells staining positive: 26%
  LN CD3, cells staining positive: 86%
  LN CD4, cells staining positive: 29%
  LN CD8, cells staining positive: 11%
  LN CD45, cells staining positive: 22%
  LN MAC1, cells staining positive: 0%
  PBL CD3, cells staining positive: 61%
  PBL CD4, cells staining positive: 23%
  PBL CD8, cells staining positive: 10%
  PBL CD45, cells staining positive: 22%
  PBL MAC1, cells staining positive: 3%
  Spleen CD3, cells staining positive: 34%
  Spleen CD4, cells staining positive: 18%
  Spleen CD8, cells staining positive: 10%
  Spleen CD45, cells staining positive: 20%
  Spleen MAC1, cells staining positive: 5%
  Thymus CD3, cells staining positive: 20%
  Thymus DN, cells staining positive: 10%
  Thymus DP, cells staining positive: 65%
  Thymus SP4, cells staining positive: 16%
  Thymus SP8, cells staining positive: 6%
[2]; [7]
  BM CD3, cells staining positive: 13%
  BM CD4, cells staining positive: 10%
  BM CD8, cells staining positive: 3%
  BM CD45, cells staining positive: 43%
  BM MAC1, cells staining positive: 16%
  LN CD3, cells staining positive: 95%
  LN CD4, cells staining positive: 42%
  LN CD8, cells staining positive: 25%
  LN CD45, cells staining positive: 23%
  LN MAC1, cells staining positive: 0%
  PBL CD3, cells staining positive: 78%
  PBL CD4, cells staining positive: 25%
  PBL CD8, cells staining positive: 8%
  PBL CD45, cells staining positive: 29%
  PBL MAC1, cells staining positive: 2%
  Spleen CD3, cells staining positive: 60%
  Spleen CD4, cells staining positive: 15%
  Spleen CD8, cells staining positive: 5%
  Spleen CD45, cells staining positive: 41%
  Spleen MAC1, cells staining positive: 1%
  Thymus CD3, cells staining positive: 25%
  Thymus DN, cells staining positive: 7%
  Thymus DP, cells staining positive: 69%
  Thymus SP4, cells staining positive: 16%
  Thymus SP8, cells staining positive: 7%
[2]; JP-8 dose 2500 + SP aerosol
  BM CD3, cells staining positive: 6%
  BM CD4, cells staining positive: 3%
  BM CD8, cells staining positive: 6%
  BM CD45, cells staining positive: 24%
  BM MAC1, cells staining positive: 34%
  Spleen CD3, cells staining positive: 38%
  Spleen CD4, cells staining positive: 26%
  Spleen CD8, cells staining positive: 14%
  Spleen CD45, cells staining positive: 31%
  Spleen MAC1, cells staining positive: 3%
  Thymus CD3, cells staining positive: 16%
  Thymus DN, cells staining positive: 19%
  Thymus DP, cells staining positive: 64%
  Thymus SP4, cells staining positive: 15%
  Thymus SP8, cells staining positive: 5%
[3]; Substance P aerosol therapy
  deleterious effects of chronic JP-8 jet fuel exposure to the immune system: reversed and/or prevented
[3]; Substance P at both 1 uM and 1 nM doses
  majority of the effects of JP-8 jet fuel exposure on the immune system: could be significantly reversed
[3]; mice exposed to 500, 1000 or 2500 mg aerosolized JP-8, 7 days 1 hour/day, treated with Substance P
  effects of JP-8 exposure on all measured immune parameters: invariably reversed the effects on all measured parameters of JP-8 exposure to almost normal levels
